Test results: patent US10391112B2, “Cationic polymers as co-drugs for chemotherapeutic agents” (Northeastern University, priority 2015, dated 2019)

System: MDA-MB-231
Assay: alamar-blue cell viability / cytotoxicity of PEI, doxorubicin and mixtures
Format: cell-based, human
Method: All cells were maintained at 37° C. in a humidified incubator with 5% CO2. MDA-MB-231 growing in the DMEM medium were harvested by trypsin-EDTA, and an initial concentration of 1×106 and further dilutions were made and seeded into wells of a 96-well plate (100 μL for each well). The medium without cells was used as negative control, and the plate was incubated for 18 h to allow cell attachment. Then another 100 μL, medium with desirable concentration drug were added into the well. After 24 h and 48 h incubation, 22 μL of alamar-blue (0.5 mg per mL) was added to each well. The absorbance was measured after further 4 h incubation at 530 nm and 590 nm using PowerwaveXPS plate reader. The plate was also incubated for the following 24 hours to measure the maximum dye reduction. Percentage reduction of alamar-blue is typically calculated using equation (1):
[formula] where At, An and Ac are recorded absorbance of test wells for test group, negative control group and positive control group.
Referring to FIG. 2, the cell viability is shown as a function of the molecular weight of the cationic polymer. […] All cells were maintained at 37° C. in a humidified incubator with 5% CO2. MDA-MB-231, 4T1 and HUVECs, HCC-1806, Hs-587T, MCF-7 cells growing in the log phase of growth were harvested by trypsin-EDTA, and an initial concentration of 1×10^6 and further dilutions were made and seeded into wells of a 96-well plate (100 μL, for each well). The medium without cells was used as negative control, and the plate was incubated for 18 h to allow cell attachment. Then another 100 μL medium with desirable concentration drug were added into the well. After 24 h and 48 h incubation, 22 μL, of alamar-blue (0.5 mg per mL) was added to each well. The absorbance was measured after further 4 h incubation at 530 nm and 590 nm using Powerwave XPS plate reader. The plate was also incubated for the following 24 hours to measure the maximum dye reduction. Percentage reduction of alamar-blue is typically calculated using equation (1).

For `COc1cccc2c1C(=O)c1c(O)c3c(c(O)c1C2=O)C[C@@](O)(C(=O)CO)C[C@@H]3O[C@H]1C[C@H](N)[C@H](O)[C@H](C)O1` [doxorubicin], the cell viability (FIG. 1, drug concentrations between 0 μM and 5 μM) was “approximately 70%”, the cell viability (FIG. 2, 0.3 to 0.6 μg doxorubicin per well, 0 μg of PEI) was 60-70% and the cell viability (FIG. 3 line 304, doxorubicin less than 5 μM) was “about 70%”.
